Active and inactive are the calls of the source. Some results are limits rather than exact numbers.

Cytochrome P450 2C9, sequence (P11712 whole entry): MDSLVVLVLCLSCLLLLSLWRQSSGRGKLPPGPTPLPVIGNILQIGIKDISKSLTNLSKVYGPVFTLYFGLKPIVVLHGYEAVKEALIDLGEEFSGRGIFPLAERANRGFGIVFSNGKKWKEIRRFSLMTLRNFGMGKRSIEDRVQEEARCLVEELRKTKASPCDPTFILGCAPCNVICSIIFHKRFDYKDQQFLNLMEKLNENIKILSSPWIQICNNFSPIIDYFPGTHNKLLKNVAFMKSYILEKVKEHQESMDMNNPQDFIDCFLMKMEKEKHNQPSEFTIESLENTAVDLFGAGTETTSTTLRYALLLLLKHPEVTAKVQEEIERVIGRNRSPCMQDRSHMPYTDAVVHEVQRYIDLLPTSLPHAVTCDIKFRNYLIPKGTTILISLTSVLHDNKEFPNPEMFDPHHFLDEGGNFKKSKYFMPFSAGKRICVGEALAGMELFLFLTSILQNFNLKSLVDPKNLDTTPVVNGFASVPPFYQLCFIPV

In the first assay the target is Cytochrome P450 2C19 (Homo sapiens, UniProt P33261). Description: Cytochrome panel assay with activity outcomes. Panel member name: p450-cyp2c19 Compounds with AC50 equal or less than 10 uM are considered active. It is filed as functional. The following applies: read-out: AC50.
Cytochrome P450 2C19, sequence (P33261 whole entry): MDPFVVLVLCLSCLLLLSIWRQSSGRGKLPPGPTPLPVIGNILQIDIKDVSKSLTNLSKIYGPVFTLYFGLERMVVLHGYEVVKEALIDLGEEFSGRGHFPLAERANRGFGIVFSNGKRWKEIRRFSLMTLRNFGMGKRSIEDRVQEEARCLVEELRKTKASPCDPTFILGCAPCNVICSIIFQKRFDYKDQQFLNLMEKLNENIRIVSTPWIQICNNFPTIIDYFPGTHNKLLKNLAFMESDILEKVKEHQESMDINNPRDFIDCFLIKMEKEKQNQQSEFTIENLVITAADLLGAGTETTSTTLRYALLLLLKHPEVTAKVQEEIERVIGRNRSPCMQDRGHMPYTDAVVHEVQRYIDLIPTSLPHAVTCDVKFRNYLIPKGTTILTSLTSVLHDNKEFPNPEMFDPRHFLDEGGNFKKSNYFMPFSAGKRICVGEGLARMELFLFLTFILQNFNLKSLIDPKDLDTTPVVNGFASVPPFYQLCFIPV
Turning to `O=C(O)[C@H]1[C@H]2CN[C@H](C(=O)O)[C@H]21`, the half-maximal activity concentration (AC50) – broadly, the concentration at which the activity in the assay is half-maximal – was 31.6 µM (inconclusive).

Turning to `S=C(Nc1ccccc1)N1CCCCC1`, the AC50 was 17.8 µM (inconclusive).

In the case of `NCc1ccccc1.O=C(O)NCc1ccccc1`, the concentration at half-maximal activity (AC50) was 2.51 µM (inconclusive).

For `CCOc1ccc(-n2c(N)c(C(=O)NCc3cccnc3)sc2=S)cc1`, the half-maximal activity concentration (AC50) is 8.91 µM (inconclusive).

As for `COCCn1c(=O)c(C)nc2cncnc21`, the AC50 was 39.8 µM (inconclusive).

Consider `CCC1CC2CC(NC(C)=O)C1C2` (stereo unspecified), for which the half-maximal activity concentration (AC50) was 20 µM (inconclusive).

As to `CCN1CCCC1CNC(=O)CSCc1nc(-c2ccccc2C)oc1C` (stereo unspecified), the AC50 was 28.2 µM (inconclusive).

The target in a further assay is T1, Corticotropin-releasing factor receptor 2/Corticotropin-releasing factor-binding protein (Homo sapiens, UniProt P24387+Q13324).
T1 sequence (Q13324 whole entry): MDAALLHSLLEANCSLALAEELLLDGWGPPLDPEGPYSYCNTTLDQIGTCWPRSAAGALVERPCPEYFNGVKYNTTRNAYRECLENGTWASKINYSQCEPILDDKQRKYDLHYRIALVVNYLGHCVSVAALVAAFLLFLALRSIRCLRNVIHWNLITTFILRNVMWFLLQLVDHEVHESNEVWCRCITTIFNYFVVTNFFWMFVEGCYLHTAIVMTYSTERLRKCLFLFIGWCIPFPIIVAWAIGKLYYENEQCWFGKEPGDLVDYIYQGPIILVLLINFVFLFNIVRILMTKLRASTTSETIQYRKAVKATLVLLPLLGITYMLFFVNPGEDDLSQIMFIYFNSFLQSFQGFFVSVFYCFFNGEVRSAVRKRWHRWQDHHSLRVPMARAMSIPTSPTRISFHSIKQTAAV
T1 sequence (P24387 whole entry): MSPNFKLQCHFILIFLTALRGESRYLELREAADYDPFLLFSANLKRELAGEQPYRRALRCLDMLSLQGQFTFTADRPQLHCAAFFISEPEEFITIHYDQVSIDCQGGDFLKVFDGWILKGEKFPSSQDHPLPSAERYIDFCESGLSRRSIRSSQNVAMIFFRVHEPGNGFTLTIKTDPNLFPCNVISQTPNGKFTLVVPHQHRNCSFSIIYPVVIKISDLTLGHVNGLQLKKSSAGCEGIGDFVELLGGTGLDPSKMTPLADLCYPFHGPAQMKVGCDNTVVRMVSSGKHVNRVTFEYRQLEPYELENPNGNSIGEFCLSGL
Description: activators of CRF receptor 2 with binding protein – uHTS hits, confirmation (AID 602473). It counts as functional. To be noted: read-out: EC50_Mean.
For the compound `N#CNC(=Nc1cccc(F)c1)SCc1ccccc1`, the EC50 was > 53 µM (inactive).

Regarding `Cc1[nH]c2ccccc2c1SCCNC(=O)c1ccc(S(=O)(=O)N2CCCC2)cc1`, the EC50 is > 53 µM (inactive).

In the case of `CNC(=O)CN(C1CCCCC1)S(=O)(=O)c1ccc(F)cc1`, the EC50 was > 53 µM (inactive).

As for `COc1ccccc1-n1c(=S)sc2c(=O)n(Cc3ccco3)c(SC)nc21`, the EC50 was > 53 µM (inactive).

As for `Cc1ccc2c(CC(=O)NCC(=O)Nc3c(C)cccc3C)coc2c1`, the EC50 is > 53 µM (inactive).

For the compound `COc1cc(NC(=S)NCCC(c2ccccc2)c2ccccc2)c(OC)cc1Cl`, the EC50 was > 53 µM (inactive).

For `Cc1ccccc1CN(C)C(=O)COC(=O)c1ccc2[nH]c(C)c(C)c2c1`, the EC50 was > 53 µM (inactive).

On to `CCOC(=O)C1CCCN(S(=O)(=O)c2ccccc2)C1` (stereo unspecified), for which the EC50 is > 53 µM (inactive).

As for `CCOCCCN(CC(=O)NC1CCCC1)C(=O)C(=O)Nc1ccc2c(c1)OCCO2`, the EC50 was > 53 µM (inactive).

In a further assay the test system is Streptococcus. Description: GAS UMAA2166 growth inhibition – luminescence, BacTiterGlo, counter-screen for streptokinase expression inhibitor project, dose response (AID 1915).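 Also: potency for reduction of bacterial viability or growth.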 It counts as functional, organism-based.
Conditions: not given
In the case of `O=[N+]([O-])c1ccc(Cl)cc1Sc1nc2ccccc2o1`, the EC50 was 7.26 µM (active).

The target in a further assay is T2, Streptokinase A (Streptococcus pyogenes serotype M1, UniProt P10520).
T2 sequence (P10520 whole entry): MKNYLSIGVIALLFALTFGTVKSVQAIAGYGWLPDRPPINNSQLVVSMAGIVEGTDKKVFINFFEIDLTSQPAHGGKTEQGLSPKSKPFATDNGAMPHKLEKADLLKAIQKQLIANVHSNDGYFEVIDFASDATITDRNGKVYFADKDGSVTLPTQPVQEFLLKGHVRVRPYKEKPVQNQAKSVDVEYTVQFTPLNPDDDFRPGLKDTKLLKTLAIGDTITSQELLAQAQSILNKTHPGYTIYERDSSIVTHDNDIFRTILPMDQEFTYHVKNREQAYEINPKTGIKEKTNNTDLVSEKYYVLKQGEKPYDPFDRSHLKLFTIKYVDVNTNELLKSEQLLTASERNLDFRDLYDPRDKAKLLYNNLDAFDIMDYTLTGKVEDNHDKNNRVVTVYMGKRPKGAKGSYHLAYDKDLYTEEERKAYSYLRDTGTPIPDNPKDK
As to the kind of experiment: viability-normalized secreted streptokinase activity reduction – plasminogen activation absorbance, OD405, dose response (AID 1914).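 Also: secreted streptokinase activity via plasminogen activation per viability signal from cell pellet.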 It counts as functional, Streptococcus pyogenes M1 GAS.
Conditions: not given
`O=[N+]([O-])c1ccc(Cl)cc1Sc1nc2ccccc2o1`: the EC50 is 6.18 µM (active).

For a further assay, the system named is H4. Description: Luminescence Cell-Based Dose Response HTS to Identify Activators of 5'UTR Stem-Loop Driven Prion Protein mRNA Translation in H4 Neuroglioblastoma Cells. [Related pubchem assays: 1829 (Project Summary), 1814 (Primary HTS)]. It counts as functional. The following applies: Homo sapiens.
Regarding `CCOC(=O)c1ccccc1NC1c2ccccc2C(=O)N1c1ccc(C)cn1` (stereo unspecified), the EC50 is 18.5 µM (active).

Tested on in a further assay: not listed separately
As to the kind of experiment: Luminescence Cell-Based Dose Response HTS to Identify Inhibitors of 5'UTR Stem-Loop Driven Prion Protein mRNA Translation in H4 Neuroglioblastoma Cells. [Related pubchem assays: 1827 (Project Summary), 1813 (Primary HTS)]. It counts as functional.
Conditions: not given
In the case of `O=[N+]([O-])c1ccc(Cl)cc1Sc1nc2ccccc2o1`, the EC50 is on record as > 120 µM (not active).

Tested on in the next assay: not listed separately
Description: Luminescence Cell-Based Dose Response HTS to Identify Activators of Luciferase Translation or Activity in H4 […] Cells. [Related pubchem assays: 1829 (Project Summary), 1814 (Primary HTS)].
Conditions: not given
It is filed as functional.
Consider `CCOC(=O)c1ccccc1NC1c2ccccc2C(=O)N1c1ccc(C)cn1` (stereo unspecified), for which the EC50 was 9.17 µM (active).

Tested on in a further assay: not listed separately
As to the kind of experiment: alpha-synuclein stem-loop luciferase translation blockers – H4 neuroglioma cells, luminescence, confirmation (AID 1988). It counts as functional, cell-based.
Conditions: not given
On to `O=[N+]([O-])c1ccc(Cl)cc1Sc1nc2ccccc2o1`, for which the EC50 is > 120 µM (not active).

The next assay has as its target Cytochrome P450 2C9 (Homo sapiens, UniProt P11712).
Conditions: not given
Turning to `NCc1ccccc1.O=C(O)NCc1ccccc1`, the AC50 was 3.98 µM (inconclusive).

For the compound `CCOc1ccc(-n2c(N)c(C(=O)NCc3cccnc3)sc2=S)cc1`, the AC50 is 3.55 µM (inconclusive).

In the case of `COCCn1c(=O)c(C)nc2cncnc21`, the concentration at half-maximal activity (AC50) was 31.6 µM (inconclusive).

With `CCC1CC2CC(NC(C)=O)C1C2` (stereo unspecified), the AC50 is 7.08 µM (inconclusive).

Tested on in the next assay: not listed separately
As to the kind of experiment: luciferase reporter signal suppression in cells – H4 neuroglioma cells, luminescence, dose response (AID 1990).
Conditions: not given
It counts as functional, cell-based.
On to `O=[N+]([O-])c1ccc(Cl)cc1Sc1nc2ccccc2o1`, for which the EC50 is on record as > 120 µM (not active).

The target in another assay is T1, Corticotropin-releasing factor receptor 2/Corticotropin-releasing factor-binding protein. As to the kind of experiment: Dose Response confirmation of uHTS hits for small molecule antagonists of the CRF-binding protein and CRF-R2 receptor complex. To be noted: read-out: IC50_Mean. It is filed as functional.
`N#CNC(=Nc1cccc(F)c1)SCc1ccccc1`: the IC50 is 14 µM (active).

Take `Cc1[nH]c2ccccc2c1SCCNC(=O)c1ccc(S(=O)(=O)N2CCCC2)cc1`: the IC50 was > 47.1 µM (inactive).

As for `CNC(=O)CN(C1CCCCC1)S(=O)(=O)c1ccc(F)cc1`, the IC50 is > 47.1 µM (inactive).

Take `COc1ccccc1-n1c(=S)sc2c(=O)n(Cc3ccco3)c(SC)nc21`: the IC50 was > 47.1 µM (inactive).

As for `Cc1ccc2c(CC(=O)NCC(=O)Nc3c(C)cccc3C)coc2c1`, the IC50 was > 47.1 µM (inactive).

Take `COc1cc(NC(=S)NCCC(c2ccccc2)c2ccccc2)c(OC)cc1Cl`: the IC50 is 4.69 µM (active).

Turning to `Cc1ccccc1CN(C)C(=O)COC(=O)c1ccc2[nH]c(C)c(C)c2c1`, the IC50 is > 47.1 µM (inactive).

In the case of `CCOC(=O)C1CCCN(S(=O)(=O)c2ccccc2)C1` (stereo unspecified), the IC50 was > 47.1 µM (inactive).

In the case of `CCOCCCN(CC(=O)NC1CCCC1)C(=O)C(=O)Nc1ccc2c(c1)OCCO2`, the IC50 was > 47.1 µM (inactive).

The target of another assay is T3, Cytochrome P450 1A2 (Homo sapiens, UniProt P05177).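 Also: PubChem cytochrome P450 panel assay, CYP1A2 panel member.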
T3 sequence (P05177 whole entry): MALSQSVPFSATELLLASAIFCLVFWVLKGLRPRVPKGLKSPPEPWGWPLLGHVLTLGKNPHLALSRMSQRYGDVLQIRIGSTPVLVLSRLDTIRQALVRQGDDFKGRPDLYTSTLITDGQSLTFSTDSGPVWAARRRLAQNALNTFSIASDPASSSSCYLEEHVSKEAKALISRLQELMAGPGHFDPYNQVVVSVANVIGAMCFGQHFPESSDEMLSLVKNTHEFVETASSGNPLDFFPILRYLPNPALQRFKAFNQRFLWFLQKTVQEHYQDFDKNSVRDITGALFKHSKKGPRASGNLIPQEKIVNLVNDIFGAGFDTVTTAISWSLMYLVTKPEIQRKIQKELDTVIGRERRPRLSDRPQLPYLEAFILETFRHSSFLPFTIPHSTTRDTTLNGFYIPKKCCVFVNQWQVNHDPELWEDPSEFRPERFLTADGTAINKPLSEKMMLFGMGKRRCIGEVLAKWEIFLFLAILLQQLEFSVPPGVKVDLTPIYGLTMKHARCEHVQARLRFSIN
Conditions: not given
Take `O=C(O)[C@H]1[C@H]2CN[C@H](C(=O)O)[C@H]21`: the AC50 was 31.6 µM (inconclusive).

For `S=C(Nc1ccccc1)N1CCCCC1`, the AC50 is 22.4 µM (inconclusive).

In the case of `COCCn1c(=O)c(C)nc2cncnc21`, the AC50 is 15.8 µM (inconclusive).

As to `CCN1CCCC1CNC(=O)CSCc1nc(-c2ccccc2C)oc1C` (stereo unspecified), the AC50 is 39.8 µM (inconclusive).

A further assay relates to Streptococcus sp. 'group A'. As to the kind of experiment: Streptococcus pyogenes SK(-)GAS viability under kanamycin – luminescence, BacTiterGlo, confirmation, counter-screen for streptokinase expression inhibitor project, dose response (AID 1900). It is filed as functional, organism-based.
Conditions: not given
As for `O=[N+]([O-])c1ccc(Cl)cc1Sc1nc2ccccc2o1`, the EC50 is 2.25 µM (active).

These data come from ChEMBL document CHEMBL1201862, “PubChem BioAssay data set” (2004).
